What was measured:
Assay type in all cases: cell-based
[1] = test system: Phospho-Rb (Ser807/811); assay: Phospho-Retinoblastoma (pRB) Cellular Assay; details: Homo sapiens, OVCAR-3, NIH OVCAR3 cells, 24 hours; for IC50: concentration giving 50% response; for Emax: maximum response, reference compound at 10 μM = 100%, read-out: pRB Ymax
In short: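 OVCAR3 cells seeded overnight, then dosed with serial dilutions for 24 h at 37° C. Lysed with kit mix plus phosphatase inhibitor, ≥4 h at room temperature, read on EnVision; 100% response set by reference compound at 10 μM, giving IC50 and Ymax.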

[2] = biological target: Cyclin E1 (Homo sapiens, UniProt P24864+Q96SW2); assay: Cyclin E1 Cellular Degradation Assay (MSD); set-up: endogenous in cells; host or cells: OVCAR3; details: for DC50 / Dmax: Cyclin E1 cellular degradation; for Dmax: maximum degradation; for Ratio of GSPT1 DC50/Cyclin E1 DC50: selectivity for degradation of Cyclin E1 over GSPT1
Cyclin E1, sequence (P24864 whole entry): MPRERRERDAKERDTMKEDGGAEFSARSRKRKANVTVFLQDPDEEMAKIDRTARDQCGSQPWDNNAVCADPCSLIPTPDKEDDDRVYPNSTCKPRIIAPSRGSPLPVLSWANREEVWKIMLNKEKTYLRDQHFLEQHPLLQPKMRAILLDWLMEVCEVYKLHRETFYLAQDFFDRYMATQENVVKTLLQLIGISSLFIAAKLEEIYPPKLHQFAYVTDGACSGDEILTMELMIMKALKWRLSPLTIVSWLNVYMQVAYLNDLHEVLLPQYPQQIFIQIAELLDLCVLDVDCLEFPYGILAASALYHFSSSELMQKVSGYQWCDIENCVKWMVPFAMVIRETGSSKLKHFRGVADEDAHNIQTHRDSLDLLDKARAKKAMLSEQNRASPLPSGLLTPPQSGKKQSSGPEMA
Cyclin E1, sequence (Q96SW2 whole entry): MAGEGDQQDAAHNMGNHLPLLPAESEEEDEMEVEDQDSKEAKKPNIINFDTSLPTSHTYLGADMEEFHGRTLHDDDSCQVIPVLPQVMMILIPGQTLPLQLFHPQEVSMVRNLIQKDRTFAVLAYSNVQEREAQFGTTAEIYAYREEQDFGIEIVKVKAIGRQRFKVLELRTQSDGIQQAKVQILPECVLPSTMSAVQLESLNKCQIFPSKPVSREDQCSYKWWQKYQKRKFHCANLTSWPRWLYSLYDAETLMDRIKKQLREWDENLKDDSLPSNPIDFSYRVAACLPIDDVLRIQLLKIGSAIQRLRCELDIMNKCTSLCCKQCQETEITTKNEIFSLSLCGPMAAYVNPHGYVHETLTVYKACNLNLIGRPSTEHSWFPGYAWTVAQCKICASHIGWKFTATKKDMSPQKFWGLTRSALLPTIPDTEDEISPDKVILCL
Cyclin E1, sequence (Q16531 whole entry partner): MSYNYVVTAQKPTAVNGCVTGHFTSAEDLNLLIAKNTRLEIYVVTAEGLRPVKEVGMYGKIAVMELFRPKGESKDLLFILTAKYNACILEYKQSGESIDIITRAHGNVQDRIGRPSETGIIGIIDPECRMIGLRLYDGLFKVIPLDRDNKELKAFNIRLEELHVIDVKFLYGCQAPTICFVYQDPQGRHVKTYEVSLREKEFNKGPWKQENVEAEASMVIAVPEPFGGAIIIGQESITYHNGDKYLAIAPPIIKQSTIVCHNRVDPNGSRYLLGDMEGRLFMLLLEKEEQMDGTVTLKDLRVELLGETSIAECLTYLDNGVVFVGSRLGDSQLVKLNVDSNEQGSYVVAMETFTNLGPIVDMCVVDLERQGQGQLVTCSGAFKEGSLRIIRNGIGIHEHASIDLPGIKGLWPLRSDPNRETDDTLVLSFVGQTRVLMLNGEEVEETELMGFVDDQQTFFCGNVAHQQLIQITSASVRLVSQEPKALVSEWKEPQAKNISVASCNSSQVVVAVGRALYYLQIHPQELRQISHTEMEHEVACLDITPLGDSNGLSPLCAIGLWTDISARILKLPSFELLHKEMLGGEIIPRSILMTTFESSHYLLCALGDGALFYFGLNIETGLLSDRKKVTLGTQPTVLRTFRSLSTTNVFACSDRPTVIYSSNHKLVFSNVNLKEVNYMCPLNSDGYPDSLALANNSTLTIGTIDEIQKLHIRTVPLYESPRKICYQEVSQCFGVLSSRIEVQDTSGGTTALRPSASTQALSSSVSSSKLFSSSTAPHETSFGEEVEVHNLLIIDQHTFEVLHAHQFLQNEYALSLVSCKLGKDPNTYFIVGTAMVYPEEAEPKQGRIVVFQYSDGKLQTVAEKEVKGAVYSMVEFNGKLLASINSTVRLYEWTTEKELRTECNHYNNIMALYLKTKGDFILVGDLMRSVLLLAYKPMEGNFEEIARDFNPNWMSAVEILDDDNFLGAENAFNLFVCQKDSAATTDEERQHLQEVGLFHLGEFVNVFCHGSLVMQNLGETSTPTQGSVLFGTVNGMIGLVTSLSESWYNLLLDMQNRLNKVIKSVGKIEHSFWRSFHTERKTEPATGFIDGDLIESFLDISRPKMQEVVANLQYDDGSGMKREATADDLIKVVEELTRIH
In short: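 OVCAR3 cells treated with compound for 24 h at 37 °C, lysed, and cyclin E1 measured by MSD sandwich immunoassay (rabbit capture, mouse detection anti-CCNE1). Reference degrader at […] defined 110% response; DC50 and Dmax derived from response.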

[3] = biological target: GSPT1 (Homo sapiens, UniProt P15170+Q96SW2); assay: GSPT1 Cellular Degradation Assay (DF15-GSPT1-ePL); set-up: expressed in transfected cells; details: DF15-GSPT1-ePL cells, 20 hours
GSPT1, sequence (P15170 whole entry, the tested form may be a part): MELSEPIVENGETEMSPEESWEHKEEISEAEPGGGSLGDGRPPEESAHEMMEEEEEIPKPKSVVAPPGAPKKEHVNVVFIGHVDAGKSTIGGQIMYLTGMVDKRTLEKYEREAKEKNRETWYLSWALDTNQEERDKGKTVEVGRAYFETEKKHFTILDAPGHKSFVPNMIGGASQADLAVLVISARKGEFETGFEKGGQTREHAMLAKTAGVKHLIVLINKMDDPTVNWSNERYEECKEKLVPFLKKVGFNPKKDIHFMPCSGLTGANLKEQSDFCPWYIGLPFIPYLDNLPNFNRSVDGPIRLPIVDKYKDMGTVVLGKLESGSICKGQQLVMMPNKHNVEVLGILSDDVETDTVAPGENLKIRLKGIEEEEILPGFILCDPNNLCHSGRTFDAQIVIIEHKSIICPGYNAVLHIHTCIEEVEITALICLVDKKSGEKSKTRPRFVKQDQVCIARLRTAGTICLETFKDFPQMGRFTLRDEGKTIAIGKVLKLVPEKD
GSPT1, sequence (Q96SW2 whole entry, the tested form may be a part): as the sequence (Q96SW2 whole entry) above
GSPT1, sequence (Q16531 whole entry partner, the tested form may be a part): as the sequence (Q16531 whole entry partner) above
In short: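 Human DF15 cells co-expressing a GSPT1–ePL fusion were treated with compound in RPMI 1640/10% FBS for 20 h at 37 °C. GSPT1 level was read by enzyme-fragment-complementation luminescence after 60 min with detection reagent. The reference degrader at […] defined 75% response; DC50 and Dmax were reported.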

SMILES | IC50 [1] | Emax [1] | DC50 [2] | Dmax [2] | Ratio of GSPT1 DC50/Cyclin E1 DC50 [2] | DC50 [3] | Dmax [3]
O=C1CCC(N2Cc3ccc(COC(=O)Nc4ccc(Oc5ccccc5)cc4)c(OC(F)F)c3C2=O)C(=O)N1 (centres unmarked) [Example 60, [4-(difluoromethoxy)-2-(2,6-dioxopiperidin-3-yl)-3-oxo-2,3-dihydro-1H-isoindol-5-yl]methyl N-(4-phenoxyphenyl)carbamate] | 503 nM | 109% | 184 nM | 104% | >76 | > 14000 nM | 19%
O=C1CCC(N2Cc3ccc(COC(=O)Nc4ccc(Oc5ccc(F)c(F)c5)cc4)c(OC(F)F)c3C2=O)C(=O)N1 (centres unmarked) [Example 61, [4-(difluoromethoxy)-2-(2,6-dioxopiperidin-3-yl)-3-oxo-2,3-dihydro-1H-isoindol-5-yl]methyl N-[4-(3,4-difluorophenoxy)phenyl]carbamate] | 412 nM | 107% | 157 nM | 104% | >89 | > 14000 nM | 22%
O=C1CCC(N2Cc3ccc(COC(=O)Nc4ccc(Oc5ccccc5)cc4)c(Oc4ccccc4)c3C2=O)C(=O)N1 (centres unmarked) [Example 62, [2-(2,6-dioxopiperidin-3-yl)-3-oxo-4-phenoxy-2,3-dihydro-1H-isoindol-5-yl]methyl N-(4-phenoxyphenyl)carbamate] | 676 nM | 94% | 98 nM | 102% | >143 | > 14000 nM | 33%
O=C1CCC(N2Cc3ccc(COC(=O)Nc4ccc(Oc5ccc(F)c(F)c5)cc4)c(Oc4ccccc4)c3C2=O)C(=O)N1 (centres unmarked) [Example 63, [2-(2,6-dioxopiperidin-3-yl)-3-oxo-4-phenoxy-2,3-dihydro-1H-isoindol-5-yl]methyl N-[4-(3,4-difluorophenoxy)phenyl]carbamate] | 136 nM | 121% | 113 nM | 104% | >124 | > 14000 nM | 41%
O=C1CCC(N2Cc3ccc(COC(=O)Nc4ccc(Oc5cccc(F)c5)cc4)c(Oc4ccccc4)c3C2=O)C(=O)N1 (centres unmarked) [Example 64, [2-(2,6-dioxopiperidin-3-yl)-3-oxo-4-phenoxy-2,3-dihydro-1H-isoindol-5-yl]methyl N-[4-(3-fluorophenoxy)phenyl]carbamate] | 83 nM | 111% | 133 nM | 109% | >105 | > 14000 nM | 22%
O=C1CCC(N2Cc3ccc(COC(=O)Nc4ccc(Oc5ccccc5F)cc4)c(Oc4ccccc4)c3C2=O)C(=O)N1 (centres unmarked) [Example 65, [2-(2,6-dioxopiperidin-3-yl)-3-oxo-4-phenoxy-2,3-dihydro-1H-isoindol-5-yl]methyl N-[4-(2-fluorophenoxy)phenyl]carbamate] | 59 nM | 127% | 164 nM | 101% | >85 | > 14000 nM | 0%
O=C1CCC(N2Cc3ccc(COC(=O)Nc4ccc(Oc5ccccc5Cl)cc4)c(Oc4ccccc4)c3C2=O)C(=O)N1 (centres unmarked) [Example 66, [2-(2,6-dioxopiperidin-3-yl)-3-oxo-4-phenoxy-2,3-dihydro-1H-isoindol-5-yl]methyl N-[4-(2-chlorophenoxy)phenyl]carbamate] | 55 nM | 148% | 111 nM | 103% | >126 | > 14000 nM | 19%
O=C1CCC(N2Cc3ccc(COC(=O)Nc4ccc(Oc5ccc(F)cc5F)cc4)c(Oc4ccccc4)c3C2=O)C(=O)N1 (centres unmarked) [Example 67, [2-(2,6-dioxopiperidin-3-yl)-3-oxo-4-phenoxy-2,3-dihydro-1H-isoindol-5-yl]methyl N-[4-(2,4-difluorophenoxy)phenyl]carbamate] | 144 nM | 127% | 112 nM | 99% | >125 | > 14000 nM | 10%
O=C1CCC(N2Cc3ccc(COC(=O)Nc4ccc(Oc5cccc(F)c5F)cc4)c(Oc4ccccc4)c3C2=O)C(=O)N1 (centres unmarked) [Example 68, [2-(2,6-dioxopiperidin-3-yl)-3-oxo-4-phenoxy-2,3-dihydro-1H-isoindol-5-yl]methyl N-[4-(2,3-difluorophenoxy)phenyl]carbamate] | 83 nM | 127% | 179 nM | 107% | >78 | > 14000 nM | 16%
O=C1CCC(N2Cc3ccc(COC(=O)Nc4ccc(Oc5ccc(F)c(F)c5)cc4F)c(Oc4ccccc4)c3C2=O)C(=O)N1 (centres unmarked) [Example 69, [2-(2,6-dioxopiperidin-3-yl)-3-oxo-4-phenoxy-2,3-dihydro-1H-isoindol-5-yl]methyl N-[4-(3,4-difluorophenoxy)-2-fluorophenyl]carbamate] | 94 nM | 125% | 263 nM | 105% | >53 | > 14000 nM | 11%
O=C1CCC(N2Cc3ccc(COC(=O)Nc4ccc(Oc5ccc(F)cc5Cl)cc4)c(Oc4ccccc4)c3C2=O)C(=O)N1 (centres unmarked) [Example 70, [2-(2,6-dioxopiperidin-3-yl)-3-oxo-4-phenoxy-2,3-dihydro-1H-isoindol-5-yl]methyl N-[4-(2-chloro-4-fluorophenoxy)phenyl]carbamate] | 223 nM | 114% | 185 nM | 94% | >76 | > 14000 nM | 9%
COc1c(COC(=O)Nc2ccc(Oc3ccc(Cl)c(F)c3)cc2)ccc2c1C(=O)N(C1CCC(=O)NC1=O)C2 (centres unmarked) [Example 71, [2-(2,6-dioxopiperidin-3-yl)-4-methoxy-3-oxo-2,3-dihydro-1H-isoindol-5-yl]methyl N-[4-(4-chloro-3-fluorophenoxy)phenyl]carbamate] | 234 nM | 97% | 241 nM | 105% | >58 | > 14000 nM | 27%
COc1cc(Oc2cc(F)c(F)c(F)c2)ccc1NC(=O)OCc1ccc2c(c1OC)C(=O)N(C1CCC(=O)NC1=O)C2 (centres unmarked) [Example 72, [2-(2,6-dioxopiperidin-3-yl)-4-methoxy-3-oxo-2,3-dihydro-1H-isoindol-5-yl]methyl N-[2-methoxy-4-(3,4,5-trifluorophenoxy)phenyl]carbamate] | 364 nM | 120% | 394 nM | 103% | >36 | > 14000 nM | 5%
COc1cc(Oc2cc(F)c(F)cc2C)ccc1NC(=O)OCc1ccc2c(c1OC)C(=O)N(C1CCC(=O)NC1=O)C2 (centres unmarked) [Example 73, [2-(2,6-dioxopiperidin-3-yl)-4-methoxy-3-oxo-2,3-dihydro-1H-isoindol-5-yl]methyl N-[4-(4,5-difluoro-2-methylphenoxy)-2-methoxyphenyl]carbamate] | 272 nM | 118% | 312 nM | 102% | >45 | > 14000 nM | 27%
